Reference: patent US20220072162A1, “MAGNETIC RESONANCE IMAGING DRUG CONTAINING A DEUTERATED NATURAL BRANCHED-CHAIN AMINO ACID, AND DIAGNOSTIC METHOD USING SAID DRUG” (LIMITED LIABILITY COMPANY "SOLVEX" ("SOLVEX" LLC), priority 2018, published 2022)
Each block holds one compound with its values, some of them ahead of it.

Key:
[1] = rat, in vivo, 0.021 mg/kg; cited from earlier work
[2] = in vivo; cited from earlier work
[3] = Accumulation of freely diffusing deuterated compounds in organs and tissues; assay type: in vivo; conditions: authors' experiments and prior art
[4] = in vivo; cited from earlier work; remark: listed apart in the source
[5] = Source text: This exchange lowers the concentration of the deuterium label, while simultaneously increasing the background signal of heavy water (DOH), which is evenly distributed throughout the body due to rapid diffusion. This process leads to a decrease in the contrast of the image, and also prevents quantitive evaluation of deuterated component concentration by comparison with the intensity of natural DOH signal.
[6] = tested on: 4T1 breast carcinoma; assay: Deuterium tomography (2H MRI) to visualize mouse 4T1 breast carcinoma in vivo (Examples 2, 4); conditions: for accumulation in tumor tissue (2H tomograms): i.p. to 20 g mouse: 20 mg valine-d6, 30 mg L-alanine-d3, 10 mg L-phenylalanine-d7; for accumulation selectivity in various organs (2H tomograms): i.p. to 20 g mouse: 30 mg L-alanine-d3, 10 mg L-phenylalanine-d7
Protocol: In this example, experiments were performed on Balb/c mice grafted with 4T1 breast carcinoma (injection of 5·10^5 cells/60 μl under the left forepaw 12 days before the experiment). An animal weighing 20 g was injected intraperitoneally with a solution of 20 mg valine-d6 in 0.5 ml of water. In 10 minutes after the injection, the animal was immobilized with isoflurane and placed on a heated bed in a tomograph. The surface ^2H receiving coil was positioned over the anterior part of the animal's body from the dorsal side, as indicated in FIG. 2 by the dotted line.
In this example, experiments were performed on Balb/c mice grafted with 4T1 breast carcinoma (injection of 5·10^5 cells/60 μl under the left forepaw 12 days before the experiment).
An animal weighing 20 g was injected intraperitoneally with a solution:
a) 30 mg of L-alanine-3,3,3-d3 in 0.5 ml of water; or
In 10 minutes after the injection, the animal was immobilized with isoflurane and placed on a heated bed in a tomograph. The surface ^2H receiving coil was positioned over the anterior part of the animal's body from the dorsal side, as indicated in FIG. 4 by the dotted line.

[7] = Solubility in water for injection; assay type: physicochemical; conditions: 10 mg in 1.0 ml of water was the dose given
[8] = in vivo; cited from earlier work; remark: listed apart in the source
[9] = Content of valine-d6 in tissues of mice with 4T1 breast carcinoma, 2H NMR of tissue extracts (Example 5); assay type: in vivo, Balb/c mice; conditions: for [valine-d6], 30 min.: 30 min after 20 mg i.p. to 20 g mouse; for [valine-d6], 1 hour: 1 hour after 20 mg i.p. to 20 g mouse
Protocol: After administration, the animal was kept in a separate cage with access to food and water. After a certain time after administration, the animal was devitalized by dislocation of the cervical vertebrae. Samples of animal organs and tissues were quickly removed and frozen in liquid nitrogen. Frozen samples were ground in a porcelain mortar while cooling with liquid nitrogen. A weighed portion (50-200 mg) of the obtained powder was quickly introduced into 0.4% hydrochloric acid (0.6-1.0 ml) heated to 98° C. The resulting suspension was kept at 98° C. for 15 min with occasional shaking. After adding an internal standard (3-O—(CD3)-glucose solution), the mixture was shaken and centrifuged until the solid fractions were completely separated. The solution was analyzed by ^2H NMR.

[10] = Distribution and metabolism of deuterated valine mixture in tissues, isotopomer ratio by LC-MS/MS (Example 6); assay type: in vivo, Balb/c mice; conditions: 60 minutes after 20 mg i.p., 49% in initial drug
Protocol: In this example, L-valine-d6/d7, partially deuterated at the α position and positions 4, 4′, was used. (S-valine-d6/d7). The total molar fraction of α-deuterated forms of valine in the initial diagnostic drug is 49%.
After administration, the animal was kept in a separate cage with access to food and water. After 60 minutes after administration, the animal was devitalized by dislocation of the cervical vertebrae. Samples of animal organs and tissues were quickly removed and frozen in liquid nitrogen. Frozen samples were ground in a porcelain mortar while cooling with liquid nitrogen. A weighed portion (about 50 mg) of the obtained powder was quickly introduced into 0.4% hydrochloric acid (1.0 ml) heated to 98° C. The resulting suspension was kept at 98° C. for 15 min with occasional shaking, then centrifuged. The solution was diluted with 3 volumes of acetonitrile, centrifuged after 15 minutes, diluted with 9 volumes of water, and centrifuged again. The ratio of isotopomers d5, d6, and d7 of valine was determined by LC-MS/MS.

Compound: CC(C)C(N)[14C](=O)O (racemic) [DL-1-^14C-valine]
- increase of absolute concentration of valine in liver and kidneys over physiological [1]: no more than 0.3 nmol/g
- elimination of isotopic label in the form of CO2 [2]: 28%
- organ of main accumulation [2]: accumulate mainly in the pancreas

Compound: CC(C)[C@H](N)[11C](=O)O [1-^11C-valine]
- organ of main accumulation [2]: accumulate mainly in the pancreas

- selective accumulation in various organs and tissues [3]: do not show selective accumulation
Compound: [2H]O[2H] [D2O]

Compound: [2H]O [DOH]
- non-toxic replacement of water in the body [4]: 10-30%

- loss of deuterium in vivo [5]: lose deuterium in vivo very quickly
- accumulation in tumor tissue (2H tomograms) [6]: do not accumulate in tumor tissue
Compound: [2H]C([2H])([2H])[C@H](N)C(=O)O [L-alanine-3,3,3-d3]
- accumulation selectivity in various organs (2H tomograms) [6]: do not show accumulation selectivity in various organs

- solubility [7]: low solubility
- accumulation in tumor tissue (2H tomograms) [6]: do not accumulate in tumor tissue
Compound: [2H]c1c([2H])c([2H])c(C([2H])([2H])[C@H](N)C(=O)O)c([2H])c1[2H] [L-phenylalanine-β,β,2,3,4,5,6-d7]
- accumulation selectivity in various organs (2H tomograms) [6]: do not show accumulation selectivity in various organs

Compound: CC(C)C(N)[14C](=O)O (stereo not shown) [^14C-valine]
- time within which most of the label accumulated in liver and pancreas is included in protein [8]: ≤ 10 min

Compound: [2H]C([2H])(N)C(=O)O [glycine-2,2-d2]
- loss of deuterium in vivo [5]: lose deuterium in vivo very quickly

- accumulation in tumor tissue compared to kidneys, heart, brain, skeletal muscles and adipose tissue ([9]; 1 hour after the injection): increased accumulation
- [valine-d6], 30 min. ([9]; Brain): 1.6 µmol/g
- [valine-d6], 1 hour ([9]; Brain): 2.6 µmol/g
- [valine-d6], 30 min. ([9]; Fat tissue): 4.0 µmol/g
- [valine-d6], 1 hour ([9]; Fat tissue): 1.7 µmol/g
- [valine-d6], 30 min. ([9]; Heart): 7.5 µmol/g
- [valine-d6], 1 hour ([9]; Heart): 8.0 µmol/g
- [valine-d6], 30 min. ([9]; Kidneys): 9.3 µmol/g
- [valine-d6], 1 hour ([9]; Kidneys): 7.5 µmol/g
- [valine-d6], 30 min. ([9]; Liver): 17.9 µmol/g
- [valine-d6], 1 hour ([9]; Liver): 11.5 µmol/g
- [valine-d6], 30 min. ([9]; Lungs): 10.6 µmol/g
- [valine-d6], 1 hour ([9]; Lungs): 8.8 µmol/g
- [valine-d6], 30 min. ([9]; Sceletal muscles): 7.4 µmol/g
- [valine-d6], 1 hour ([9]; Sceletal muscles): 7.7 µmol/g
- [valine-d6], 30 min. ([9]; Spleen): 14.7 µmol/g
- [valine-d6], 1 hour ([9]; Spleen): 14.1 µmol/g
- Tumor:tissue ratio, 30 min. ([9]; Tumor:Brain): 5.8
- Tumor:tissue ratio, 1 hour ([9]; Tumor:Brain): 3.8
- Tumor:tissue ratio, 30 min. ([9]; Tumor:Fat tissue): 2.3
- Tumor:tissue ratio, 1 hour ([9]; Tumor:Fat tissue): 5.8
- Tumor:tissue ratio, 30 min. ([9]; Tumor:Heart): 1.2
- Tumor:tissue ratio, 1 hour ([9]; Tumor:Heart): 1.2
- Tumor:tissue ratio, 30 min. ([9]; Tumor:Kidneys): 0.99
- Tumor:tissue ratio, 1 hour ([9]; Tumor:Kidneys): 1.3
- Tumor:tissue ratio, 30 min. ([9]; Tumor:Liver): 0.51
- Tumor:tissue ratio, 1 hour ([9]; Tumor:Liver): 0.85
- Tumor:tissue ratio, 30 min. ([9]; Tumor:Lungs): 0.87
- Tumor:tissue ratio, 1 hour ([9]; Tumor:Lungs): 1.1
- Tumor:tissue ratio, 30 min. ([9]; Tumor:Sceletal muscles): 1.2
- Tumor:tissue ratio, 1 hour ([9]; Tumor:Sceletal muscles): 1.3
- Tumor:tissue ratio, 30 min. ([9]; Tumor:Spleen): 0.63
- Tumor:tissue ratio, 1 hour ([9]; Tumor:Spleen): 0.70
- [valine-d6], 30 min. ([9]; Tumor): 9.2 µmol/g
- [valine-d6], 1 hour ([9]; Tumor): 9.8 µmol/g
- excess over the physiological concentration of free valine in animal tissues ([9]; physiological free valine about 0.5 μmol/g): more than 10 fold
Compound: [2H]C([2H])([2H])C([C@H](N)C(=O)O)C([2H])([2H])[2H] [valine-d6, Valine-4,4,4,4′, 4′, 4′-D6]

- total mole fraction of α-deuterated valine ([10]; adipose tissue): 11%
- total mole fraction of α-deuterated valine ([10]; blood): 12%
- total mole fraction of α-deuterated valine ([10]; brain): 5%
- total mole fraction of α-deuterated valine ([10]; kidneys): 17%
- total mole fraction of α-deuterated valine ([10]; liver): 11%
- total mole fraction of α-deuterated valine ([10]; skeletal muscles): 11%
- total mole fraction of α-deuterated valine ([10]; spleen): 13%
- total mole fraction of α-deuterated valine ([10]; tumor): 12%
Compound: Valine-2,4,4,4,4 “, 4”, 4′-D7 (mixed with valine-4,4,4,4 “, 4”, 4′-D6) [L-valine-d6/d7]
